Experimental data from ChEMBL document CHEMBL2311418, “Structure-activity relationships of antitubercular salicylanilides consistent with disruption of the proton gradient via proton shuttling” (Bioorg Med Chem, 2013).
In brackets after ≈: the same amount, converted by molar mass.

Key:
[1] = tested on: Mycobacterium tuberculosis; assay: Antitubercular activity against Mycobacterium tuberculosis H37Rv ATCC27294 assessed as complete cessation of growth; assay type: functional; settings: H37Rv ATCC 27294
[2] = Cytotoxicity against mouse macrophage cell line J774.1 (ATCC TIB-67) for 3 days by Alamar Blue; assay type: cell-based; settings: 72 h

Compound | MIC [1] [µM] | IC50 [2] [µM]
O=C(Nc1ccccc1)c1cc(Cl)ccc1O | 13 (≈ 3.22 µg/mL) | 22
Cc1cc(NS(=O)(=O)c2ccc(NC(=O)c3cc(Cl)ccc3O)cc2)no1 | > 50 | > 60
O=C(Nc1ccc(C(F)(F)F)cc1)c1cc(Cl)ccc1O | 1.6 (≈ 0.505 µg/mL) | 2.8
Cc1cc(C)cc(NC(=O)c2cc(Cl)ccc2O)c1 | ≥ 50 | 21
O=C(Nc1cccc(Br)c1)c1cc(Cl)ccc1O | 6.3 (≈ 2.06 µg/mL) | 5.7
N#Cc1cccc(NC(=O)c2cc(Cl)ccc2O)c1 | 25 (≈ 6.82 µg/mL) | 10
O=C(Nc1cccc(F)c1)c1cc(Cl)ccc1O | 6.3 (≈ 1.67 µg/mL) | 15
O=C(Nc1cc(Cl)cc(Cl)c1)c1cc(Cl)ccc1O | 1.6 (≈ 0.507 µg/mL) | 3.1
O=C(Nc1cc(F)cc(F)c1)c1cc(Cl)ccc1O | 3.1 (≈ 0.879 µg/mL) | 6.1
O=C(O)c1cccc(NC(=O)c2cc(Cl)ccc2O)c1 | > 50 | > 60
CCOC(=O)c1cccc(NC(=O)c2cc(Cl)ccc2O)c1 | 13 (≈ 4.16 µg/mL) | 17
NC(=O)c1cccc(NC(=O)c2cc(Cl)ccc2O)c1 | > 50 | > 60
O=C(Nc1ccccc1)c1cccc(NC(=O)c2cc(Cl)ccc2O)c1 | > 50 | > 60
O=C(Nc1ccc(F)cc1)c1cc(Cl)ccc1O | 13 (≈ 3.45 µg/mL) | 17
O=C(Nc1ccc(OC(F)(F)F)cc1)c1cc(Cl)ccc1O | 3.1 (≈ 1.03 µg/mL) | 7.3
O=C(Nc1ccc(Oc2ccccc2)cc1)c1cc(Cl)ccc1O | 13 (≈ 4.42 µg/mL) | 43
CC(C)(C)c1ccc(NC(=O)c2cc(Cl)ccc2O)cc1 | 13 (≈ 3.95 µg/mL) | 19
COc1ccc(NC(=O)c2cc(Cl)ccc2O)cc1 | > 50 | > 60
O=C(Nc1ccc(N2CCOCC2)cc1)c1cc(Cl)ccc1O | > 50 | –
NC(=O)c1ccc(NC(=O)c2cc(Cl)ccc2O)cc1 | > 50 | > 60
O=C(Nc1ccccc1)c1ccc(NC(=O)c2cc(Cl)ccc2O)cc1 | > 50 | > 60
O=C(Nc1ccc(S(=O)(=O)Nc2ccccc2)cc1)c1cc(Cl)ccc1O | > 50 | > 60
Cc1c(NC(=O)c2cc(Cl)ccc2O)cccc1C(F)(F)F | 3.1 (≈ 1.02 µg/mL) | 8
O=C(Nc1cccc(C(F)(F)F)c1F)c1cc(Cl)ccc1O | 3.1 (≈ 1.03 µg/mL) | 5.3
O=C(Nc1cccc(F)c1F)c1cc(Cl)ccc1O | 13 (≈ 3.69 µg/mL) | 13
O=C(Nc1ccc(F)cc1C(F)(F)F)c1cc(Cl)ccc1O | 6.3 (≈ 2.1 µg/mL) | 13

Compound | MIC [1] [µM] | IC50 [2] [µM]
O=C(Nc1ccc(Br)cc1C(F)(F)F)c1cc(Cl)ccc1O | 6.3 (≈ 2.49 µg/mL) | 11
O=C(Nc1ccc(C(F)(F)F)cc1Cl)c1cc(Cl)ccc1O | 0.8 (≈ 0.28 µg/mL) | 2.4
O=C(Nc1ccc(F)cc1F)c1cc(Cl)ccc1O | 13 (≈ 3.69 µg/mL) | 8.5
O=C(Nc1cc(C(F)(F)F)ccc1Cl)c1cc(Cl)ccc1O | 1.6 (≈ 0.56 µg/mL) | 3.5
O=C(Nc1cc(C(F)(F)F)ccc1F)c1cc(Cl)ccc1O | 1.6 (≈ 0.534 µg/mL) | 2.6
O=C(Nc1cc(C(F)(F)F)ccc1Br)c1cc(Cl)ccc1O | 0.8 (≈ 0.316 µg/mL) | 2.9
COc1ccc(C(F)(F)F)c(NC(=O)c2cc(Cl)ccc2O)c1 | 6.3 (≈ 2.18 µg/mL) | 4.8
O=C(Nc1cc(F)ccc1Cl)c1cc(Cl)ccc1O | 3.1 (≈ 0.93 µg/mL) | 3.2
O=C(Nc1cc([N+](=O)[O-])ccc1F)c1cc(Cl)ccc1O | 6.3 (≈ 1.96 µg/mL) | 8.5
O=C(Nc1c(Cl)cccc1C(F)(F)F)c1cc(Cl)ccc1O | > 50 | 23
O=C(Nc1c(F)cccc1F)c1cc(Cl)ccc1O | > 50 | > 60
O=C(Nc1ccc(F)c(C(F)(F)F)c1)c1cc(Cl)ccc1O | 1.6 (≈ 0.534 µg/mL) | 5.3
O=C(Nc1ccc(Cl)c(C(F)(F)F)c1)c1cc(Cl)ccc1O | 1.6 (≈ 0.56 µg/mL) | 4.5
O=C(Nc1ccc(Br)c(C(F)(F)F)c1)c1cc(Cl)ccc1O | 3.1 (≈ 1.22 µg/mL) | 4.5
N#Cc1ccc(NC(=O)c2cc(Cl)ccc2O)cc1C(F)(F)F | 6.3 (≈ 2.15 µg/mL) | 5.8
O=C(Nc1ccc(F)c(Cl)c1)c1cc(Cl)ccc1O | 3.1 (≈ 0.93 µg/mL) | 4.4
O=C(Nc1ccc(F)c(F)c1)c1cc(Cl)ccc1O | 3.1 (≈ 0.879 µg/mL) | 7.7
Cc1ccc(NC(=O)c2cc(Cl)ccc2O)cc1I | 6.3 (≈ 2.44 µg/mL) | 6.3
O=C(Nc1cc(Br)ccc1C(F)(F)F)c1cc(Cl)ccc1O | 1.6 (≈ 0.631 µg/mL) | 5.8
COc1cc(NC(=O)c2cc(Cl)ccc2O)cc(C(F)(F)F)c1 | 6.3 (≈ 2.18 µg/mL) | 18
CC(C)(C)c1cc(NC(=O)c2cc(Cl)ccc2O)cc(C(C)(C)C)c1 | 6.3 (≈ 2.27 µg/mL) | 4.1
Cc1c(C(F)(F)F)cc(NC(=O)c2cc(Cl)ccc2O)cc1C(F)(F)F | 0.8 (≈ 0.318 µg/mL) | < 1.9
Cc1c(NC(=O)c2cc(Cl)ccc2O)cc(C(F)(F)F)cc1C(F)(F)F | 3.1 (≈ 1.23 µg/mL) | 3.2
O=C(Nc1cc(F)c(Br)c(F)c1)c1cc(Cl)ccc1O | 1.6 (≈ 0.58 µg/mL) | 4.3
O=C(Nc1cc(F)c(F)c(F)c1)c1cc(Cl)ccc1O | 1.6 (≈ 0.483 µg/mL) | 4.7
O=C(Nc1cc(Cl)c(Cl)c(Cl)c1)c1cc(Cl)ccc1O | 1.6 (≈ 0.562 µg/mL) | 5.4

Compound | MIC [1] [µM] | IC50 [2] [µM]
O=C(Nc1cc(F)c(F)cc1F)c1cc(Cl)ccc1O | 3.1 (≈ 0.935 µg/mL) | 6.2
O=C(Nc1ccc(F)c(F)c1F)c1cc(Cl)ccc1O | 6.3 (≈ 1.9 µg/mL) | 6.7
COc1cc(NC(=O)c2cc(Cl)ccc2O)c(Cl)cc1Cl | 13 (≈ 4.51 µg/mL) | 8
O=C(Nc1cc(O)c(Cl)cc1Cl)c1cc(Cl)ccc1O | > 50 | 32
O=C(Nc1cc(Br)cc(C(F)(F)F)c1)c1cc(F)ccc1O | 3.1 (≈ 1.17 µg/mL) | 4.7
O=C(Nc1cc(C(F)(F)F)ccc1Cl)c1cc(F)ccc1O | 3.1 (≈ 1.03 µg/mL) | 6.1
O=C(Nc1cc(F)cc(F)c1)c1cc(F)ccc1O | 6.3 (≈ 1.68 µg/mL) | 9.6
O=C(Nc1ccc(C(F)(F)F)cc1)c1cc(F)ccc1O | 3.1 (≈ 0.928 µg/mL) | 5.4
O=C(Nc1cc(C(F)(F)F)ccc1F)c1cc(F)ccc1O | 6.3 (≈ 2 µg/mL) | 5.1
O=C(Nc1cccc(C(F)(F)F)c1)c1cc(F)ccc1O | 6.3 (≈ 1.89 µg/mL) | 6.1
O=C(Nc1cc(C(F)(F)F)cc(C(F)(F)F)c1)c1ccccc1 | > 50 | –
Oc1ccc(Cl)cc1CNc1cc(C(F)(F)F)cc(C(F)(F)F)c1 | ≥ 50 | 7.8
O=C(Nc1cc(C(F)(F)F)cc(C(F)(F)F)c1)Nc1cc(Cl)ccc1O | ≥ 50 | 13
O=C(Oc1cc(C(F)(F)F)cc(C(F)(F)F)c1)c1cc(Cl)ccc1O | > 50 | > 60
O=C(Nc1cc(Cl)ccc1O)c1cc(C(F)(F)F)cc(C(F)(F)F)c1 | > 50 | 12
Oc1ccc(Cl)cc1C(=S)Nc1cc(C(F)(F)F)cc(C(F)(F)F)c1 | 1.6 (≈ 0.64 µg/mL) | –
O=S(=O)(Nc1cc(C(F)(F)F)cc(C(F)(F)F)c1)c1cc(Cl)ccc1O | ≥ 50 | 23
O=C(NCc1cc(C(F)(F)F)cc(C(F)(F)F)c1)c1cc(Cl)ccc1O | 6.3 (≈ 2.51 µg/mL) | 27
O=C(Nc1ccccc1C(F)(F)F)c1cc(Cl)ccc1O | – | 19
O=C(Nc1ccc(C(F)(F)F)c(C(F)(F)F)c1)c1cc(Cl)ccc1O | 0.8 (≈ 0.307 µg/mL) | 4.9
O=C(Nc1cccc(C(F)(F)F)c1C(F)(F)F)c1cc(Cl)ccc1O | 6.3 (≈ 2.42 µg/mL) | 8.1
O=C(Nc1cc(C(F)(F)F)ccc1C(F)(F)F)c1cc(Cl)ccc1O | 3.1 (≈ 1.19 µg/mL) | 6.6
O=C(Nc1ccccc1S(=O)(=O)c1ccccc1)c1cc(Cl)ccc1O | > 50 | > 60
N#Cc1ccc(NC(=O)c2cc(Cl)ccc2O)cc1 | 13 (≈ 3.54 µg/mL) | 11
O=C(Nc1cccc(C(F)(F)F)c1)c1cc(Cl)ccc1O | 3.1 (≈ 0.979 µg/mL) | 5.9
